Broadly, the IC50 is the concentration that gives 50% inhibition. High values mean lower potency, low ones higher potency.

We go through five compounds from patent US20080213172A1, “RADIOIMAGING MOIETIES COUPLED TO PEPTIDEASE-BINDING MOIETIES FOR IMAGING TISSUES AND ORGANS THAT EXPRESS PEPTIDASES” (Molecular Insight Pharmaceuticals, Inc., priority 2006, published 2008).

The structures appear in SMILES notation.

The target in one assay is T1, purified rabbit lung ACE (Oryctolagus cuniculus, UniProt P12822).
T1 construct: The rabbit lung ACE (Sigma A6778) was reconstituted to a concentration of 1 unit/3 ml water; purchased Sigma A6778; host or cells: rabbit lung tissue
T1 sequence (P12822 34-1310): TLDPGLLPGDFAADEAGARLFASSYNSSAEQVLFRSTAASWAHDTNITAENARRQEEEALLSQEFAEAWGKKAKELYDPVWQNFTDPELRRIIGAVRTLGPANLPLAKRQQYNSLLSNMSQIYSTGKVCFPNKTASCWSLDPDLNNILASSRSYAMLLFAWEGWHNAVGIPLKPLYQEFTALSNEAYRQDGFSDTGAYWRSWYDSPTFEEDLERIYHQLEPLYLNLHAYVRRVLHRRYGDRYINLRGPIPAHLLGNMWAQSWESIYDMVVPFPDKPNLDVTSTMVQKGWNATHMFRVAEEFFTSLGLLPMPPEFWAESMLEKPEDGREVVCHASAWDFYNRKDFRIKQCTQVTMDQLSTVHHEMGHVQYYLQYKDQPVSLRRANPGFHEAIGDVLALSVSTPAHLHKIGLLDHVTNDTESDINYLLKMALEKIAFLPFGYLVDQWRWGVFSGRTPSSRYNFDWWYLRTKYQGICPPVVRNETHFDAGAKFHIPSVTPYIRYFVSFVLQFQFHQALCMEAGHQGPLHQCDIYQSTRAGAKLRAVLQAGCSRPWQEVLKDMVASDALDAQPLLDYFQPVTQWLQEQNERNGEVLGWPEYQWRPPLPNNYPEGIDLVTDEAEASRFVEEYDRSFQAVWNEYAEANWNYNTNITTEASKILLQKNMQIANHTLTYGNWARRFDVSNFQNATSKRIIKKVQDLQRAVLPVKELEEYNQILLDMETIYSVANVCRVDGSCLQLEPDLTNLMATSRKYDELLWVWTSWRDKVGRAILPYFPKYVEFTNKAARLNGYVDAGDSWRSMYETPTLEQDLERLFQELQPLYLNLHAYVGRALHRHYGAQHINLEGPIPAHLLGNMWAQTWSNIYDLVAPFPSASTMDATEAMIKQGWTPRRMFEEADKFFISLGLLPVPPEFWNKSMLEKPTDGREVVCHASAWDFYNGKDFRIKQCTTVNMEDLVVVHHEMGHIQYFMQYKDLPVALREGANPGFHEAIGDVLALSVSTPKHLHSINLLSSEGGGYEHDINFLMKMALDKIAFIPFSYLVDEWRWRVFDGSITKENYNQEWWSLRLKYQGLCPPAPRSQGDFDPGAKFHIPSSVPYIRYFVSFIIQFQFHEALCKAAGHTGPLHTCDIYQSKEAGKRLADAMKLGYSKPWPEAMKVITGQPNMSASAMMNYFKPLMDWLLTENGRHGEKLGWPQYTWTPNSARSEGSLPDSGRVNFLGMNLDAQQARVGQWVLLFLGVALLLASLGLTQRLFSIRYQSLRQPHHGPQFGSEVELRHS
As to the kind of experiment: In vitro ACE activity colorimetric assay (Fujirebio ACE color kit). Type of assay: biochemical. The settings on record: Re-complexes; purified rabbit lung ACE. Here is the method: ACE inhibition was evaluated in vitro against rabbit lung ACE using a colorimetric assay.
A range of concentrations of each compound was examined for the ability to inhibit ACE cleavage of p-hydroxybenzoyl-glycine L-histidyl-L-leucine using a commercially available in vitro biochemical assay according to manufacturer's specifications (Fujirebio). The source of ACE enzyme chosen for the analysis was purified rabbit lung ACE (Sigrna) at 3.3 mU/sample. Lisinopril was included in each experiment as a positive control.
Angiotensin converting enzyme (ACE) activity was determined using the ACE color kit (Fujirebio) according to the manufacturers instructions. ACE acts upon p-hydroxybenzoyl-glycyl-L-histidyl-L-leucine to produce p-hydroxybenzoyl-glycine, which is converted to p-hydroxybenzoic acid by hippuricase. Quinoneimine dye is produced by oxidation and condensation of the p-hydroxybenzoic acid and 4-aminoantipyrine using sodium metaperiodate. The concentration of quinoneimine dye is quantitatively measured at its absorbance maximum of 505 nm. This assay was designed to compare the tissue and plasma specificity of rhenium-labeled ACE inhibitors in an ACE colorimetric assay.
Preparation of reagents: The ACE color kit was purchased from Fujirebio and the assay was conducted according to the manufacturer's instructions: reconstitute substrate with 5.6 ml of buffer solution, reconstitute blank with 5.6 ml of buffer solution for blank, reconstitute developer with 15.5 ml of stopper solution. The rabbit lung ACE (Sigma A6778) was reconstituted to a concentration of 1 unit/3 ml water.
Substrate or blank solution (125 μL) was then added and incubated at 37° C. for 20 min. The developer solution was added and incubated 37° C. for 3 min. The activity of the test compounds was determined by measuring the absorbance at 505 nm on a spectrophotometer. The optimal amount of serum ACE (25 μL) and tissue ACE (3.3 mUnits) was used to determine the specificity of the rhenium-labled ACE inhibitors. Test compounds, including lisinopril and captopril, were prepared (50 μM stock) and serially diluted 10-fold for final concentrations ranging from 1 μM to 0.1 nM (10 μL/assay tube). The assay was conducted as described above.
In vitro ACE activity assay. The ability of test compounds to inhibit ACE activity was determined using the ACEcolor kit from Fujirebio, Inc. according to the manufacturer's instructions. Purified rabbit lung ACE. (3.3 mUnits, Sigrna Chemicals) was incubated for 20 min with the test compound at concentrations of 1 μM to 0.1 nM in a solution of substrate at 37° C. Developer solution was added and the samples were incubated for an additional 5 minutes at 37° C. before reading at 505 nm in a spectrophotometer.
`NCCCC[C@H](N[C@@H](CCc1ccccc1)C(=O)O)C(=O)N1CCC[C@H]1C(=O)O` [Lisinopril, reference compound] came in with an IC50 of 4 nM.

Still in this assay, the particulars now being: free D(Cx)L ligands; rabbit lung ACE 3.3 mU/sample.
Turning to `O=C(CCCCN(Cc1ccccn1)Cc1ccccn1)NCCCCC(NC(CCc1ccccc1)C(=O)O)C(=O)N1CCCC1C(=O)O` (stereo not drawn) [D(C5)L], 42.8 nM corresponded to half-maximal inhibition (IC50). As to `O=C(CCCN(Cc1ccccn1)Cc1ccccn1)NCCCCC(NC(CCc1ccccc1)C(=O)O)C(=O)N1CCCC1C(=O)O` (stereo not drawn) [D(C4)L], the IC50 is 83.3 nM. Compound `NCCCC[C@H](N[C@@H](CCc1ccccc1)C(=O)O)C(=O)N1CCC[C@H]1C(=O)O` [Lisinopril, reference compound] displayed an IC50 of 2.5 nM. Take `O=C(CCCCCN(Cc1ccccn1)Cc1ccccn1)NCCCCC(NC(CCc1ccccc1)C(=O)O)C(=O)N1CCCC1C(=O)O` (stereo not drawn) [D(C6)L]: the IC50 was found to be 42.5 nM. Against the preceding compound, the IC50 is about 17-fold higher.

`O=C(CCCCCCCN(Cc1ccccn1)Cc1ccccn1)NCCCCC(NC(CCc1ccccc1)C(=O)O)C(=O)N1CCCC1C(=O)O` (stereo not drawn) [D(C8)L] gave a 50% inhibitory concentration (IC50) of 19.5 nM.
